How the values were obtained:
[1] = system: water immersion restraint stress ulcer; experiment: Influence on rat water immersion restraint stress ulcer; type: in vivo, Wister rats; details: oral, 30 minutes before stress, 7 hours stress; for Length of gastric mucosa impairment: control 14.7 mm
From the text: [Influence on Rat Water Immersion Restraint Stress Ulcer]
The powders obtained in Examples 1, 2 and 3, a mixed powder containing the powder obtained in Example 2 and basic zinc carbonate (Zn=58%), the powders obtained in Comparative Examples 1 and 2, lansoprazole as a proton pump inhibitor and sucralfate, which is most highly evaluated as a gastric mucosa protective agent, were used as test specimens. These test specimens were examined for effect on water immersion restraint stress ulcer, which is an acute ulcer model.
Eight Wister rats as a group were preliminarily reared for a few days. The rats were fasted for 24 hours. Then, the rats were placed in a stress cage according to the method of Takagi et al. (Jap, J, Pharacol, 18:9, 1968). The rats were immersed up to xiphoid process parts in a water tank having a temperature of 23° C. and the rats were subjected to stress for 7 hours. Then, their stomachs were taken out under ether anesthesia. About 12 mL of 2% formalin physiological saline solution was injected into each stomach, to fix the stomach. Then, each stomach was cut out along a curvatura ventriculi major side. The length (mm) of mucosa ulcer at a glandular stomach portion was measured.
As to oral administration of the test specimens, 5 mL/kg (rat weight) of a liquid containing a test specimen was administered 30 minutes before the load of the stress. In Control, the same amount of water was administered.

[2] = Antacid power, measured according to the pharmacopoeia of Japan; type: physicochemical
[3] = Measurement of adsorption amount of naphthol yellow S; type: physicochemical; details: 1.0 g powder in 500 mL NYS aqueous solution 100 ppm, 30° C., 1 hour
Experimental: [Measurement of Adsorption Amount of Naphthol Yellow S]
1.0 g of a powder sample was added to 500 mL of an aqueous solution of naphthol yellow S (NYS) (concentration 100 ppm). The mixture was stirred at 30° C. for 1 hour and then filtered to obtain a filtrate. The concentration of NYS in the filtrate was measured with a spectrophotometer and the adsorption amount of the sample was obtained.

Compound	Inhibition rate ([1]; dosage 40 mg/kg) [%]	Length of gastric mucosa impairment ([1]; dosage 40 mg/kg) [mm]	Antacid power [2] [mL/g]	NYS adsorption amount [3] [mg/g]	Inhibition rate ([1]; dosage 500 mg/kg) [%]	Length of gastric mucosa impairment ([1]; dosage 500 mg/kg) [mm]
Cc1c(OCC(F)(F)F)ccnc1C[S+]([O-])c1nc2ccccc2[nH]1 (centres unmarked) [Lansoprazole, lansoprazole]	78	3.2	0	0		
sucralfate			168	0.60	71	4.3

From patent publication US20110206779A1, “GASTRIC ULCER THERAPEUTIC AGENT” (priority 2010, published 2011)
